Where two headings read alike, the source gives them in different places.
Legend:
[1] = tested on: HCV replicon (genotype 1b) in Huh7 cell line ET; test: microbe, parasite or virus in culture; format: cell-based, HCV genotype 1b
[2] = tested on: Huh-7 ET, Molt-4, DU-145, Hep-G2 and SH-SY5Y cells; test: [3H]Thymidine incorporation assay (cell toxicity); settings: read-out: [3H]Thymidine CC50; [3H]thymidine incorporation, cell toxicity; mean value class; cell line not given
[3] = tested on: HCV sub-genomic replicon of genotype 1a in replicon cell line W11.8; test: microbe, parasite or virus in culture; format: cell-based, HCV genotype 1a
Excerpt: This procedure below describes the HCV replicon assay using a Huh7 hepatoma cell line harboring a highly cell culture-adapted replicon (genotype 1b) (hereafter named cell line ET). The ET cells contained the highly cell culture-adapted replicon I389luc-ubi-neo/NS3-3′/5.1 construct that carried, in addition to the neomycin gene, an integrated copy to the firefly luciferase gene (Krieger, N; Lohmann, V; Bartenschlager, R. Enhancement of hepatitis C virus RNA replication by cell culture-adaptive mutations. J. Virol. 2001, 75, 4614-4624). A replicon cell line W11.8, containing the 1a genotype of HCV was also used. These two cell lines (genotype 1b and 1a) allowed measurement of RNA replication and translation by measuring luciferase activity (against genotype 1b) or by measuring the NS5A level using the ELISA assay (against genotype 1a). […] ET cell lines were maintained in cultures at a sub-confluent level (<85%). The culture media used for cell passaging consisted of DMEM (Gibco BRL Laboratories, Mississauga, ON, Canada) supplemented with 10% fetal bovine serum with 1% penicilin/streptomycin, 1% glutamine, 1% sodium pyruvate, 1% non-essential amino acids, and 180 µg/ml of G418 final concentration.
Replicon cell lines W11.8 containing a sub-genomic replicon of genotype 1a was used for the HCV Replicon Cell-Based detection using the ELISA. The RNA replication in presence of different drug concentrations was indirectly measured in these cell lines by the level of NS5A protein content upon drug treatment for four days. The NS5A is a non-structural protein of HCV and is used as marker of HCV replication in this assay.
For the treatment of the cells with the testing drug, Culture medium was removed from the 175 cm^2 T-flask by aspiration. Cell monolayer was rinsed with 10-20 mL of PBS 1× at room temperature. PBS was removed by aspiration. Cells were trypsinized using 3 mL of Trypsin (0.25%)/EDTA (0.1%) solution. Flasks were incubated at 37° C. (incubator) for 7 minutes. Complete medium (9 mL) without G418 is then added. Cell clumps were disrupted by pipetting up and down several times.
The cell suspension was then transferred to a 50 mL Falcon polypropylene tube. Cells were then counted several times using the haemocytometer. Cells were diluted at 50,000 cells/mL with complete DMEM without G418, then transferred into a sterile reservoir. Using a multichannel pipet, approximately 5,000 viable cells (100 μL) were plated per well in a white opaque 96-well microtiter plate. After an incubation period of 2-4 hours at 37° C. in a 5% CO2 incubator, compounds were added at various concentrations.
Drugs were resuspended in DMSO at a stock concentration of 100 mM or 10 mM. […] Then, drugs were diluted at twice the final concentration in the same medium (without G418) described earlier, in sterile 96-deep well plate and according to a particular template (see Appendix). One volume (100 μL) of each drug dilution was then added to each well that contains cells.
Sixteen wells were used as control (0% inhibition) without drug. Eight wells were used as background control (100% inhibition) containing 2 μM (final concentration) of the reference compound. […] Values from 100% inhibited wells were averaged and used as the background value. Cells are further incubated for 4 days at 37° C. in a 5% CO2 incubator.
For the measurement of NS5A protein content, following the incubation time of four days, the media was throwed into an appropriate waste container by inverting the plate. Any residual liquid was removed by tapping gently on absorbent paper several times. The plates were then washed once with 150 μL of PBS per well, and then incubated for 5 minutes at room temperature on a shaker (500 rpm).

[4] = [3H]Thymidine incorporation assay (cell toxicity); settings: human
[5] = read-out: HCV-Replicon-(Luci-ET) 1b_IC50
[6] = Hepatitis C virus, Huh-7, 96 h, read-out: HCV-Replicon (Luci-ET)-1b_IC50
[7] = Hepatitis C virus, W11.8, 96 h, read-out: HCV-Replicon-ELISA-1a IC50
[8] = Hepatitis C virus, Huh-7, read-out: HCV-Replicon-(Luci-ET) 1b_IC50
[9] = Hepatitis C virus, W11.8, read-out: HCV-Replicon-ELISA-1a IC50

Row | Structure (SMILES) | IC50 [1, 5] | CC50 [2] | IC50 [1, 6] | IC50 [3, 7] | CC50 at 72 h [4] | IC50 [1, 8] | IC50 [3, 9] | also measured
1 | COC(C)C(C(=O)N1CCOCC1)N(C(=O)C1CCC(C)CC1)c1cc(C#CC(C)(C)C)sc1C(=O)O (centres unmarked) [Compound 65] | < 100 nM | > 100000 nM | – | – | – | – | – | –
2 | CC(C)C#Cc1cc(N(CC(=O)N2CC3(COC3)C2)C(=O)C2CCC(C)CC2)c(C(=O)O)s1 (centres unmarked) [Compound 71] | < 100 nM | > 100000 nM | – | – | – | – | – | –
3 | CO[C@H](C)[C@@H](C(=O)N(C)C)N(c1cc(C#CC(C)(C)C)sc1C(=O)O)C(=O)[C@H]1CC[C@H](C)CC1 [Compound 57] | < 100 nM | > 100000 nM | – | – | – | – | – | –
4 | CC[C@@H](C(=O)N1CCN(C)CC1)N(c1cc(C#CC(C)(C)C)sc1C(=O)O)C(=O)[C@H]1CC[C@H](C)CC1 [Compound 82] | < 100 nM | > 100000 nM | – | – | – | – | – | IC50 ([3]; read-out: HCV-Replicon-ELISA-1a IC50): < 100 nM
5 | COC(C)C(C(=O)N(C)C)N(C(=O)C1CCC(C)CC1)c1cc(C#CC(C)(C)C)sc1C(=O)O (centres unmarked) [Compound 75] | < 100 nM | 10000 to 100000 nM | – | – | – | – | – | –
6 | COCCN1CCCC[C@H](N(c2cc(C#CC(C)(C)C)sc2C(=O)O)C(=O)[C@H]2CC[C@H](C)CC2)C1=O [Compound 138, (S)-5-(3,3-Dimethylbut-1-ynyl)-3-((trans)-4-methyl-N-(1-(2-methoxyethyl)-2-oxoazepan-3-yl)cyclohexanecarboxamido)thiophene-2-carboxylic acid] | – | – | < 100 nM | < 100 nM | > 100000 nM | – | – | –
7 | COCC[C@@H](C(=O)N1CCOCC1)N(C(=O)C1CCC(C)CC1)c1cc(C#CC(C)(C)C)sc1C(=O)O (some centres unmarked) [Compound 61] | – | – | – | – | > 100000 nM | < 100 nM | < 100 nM | –
8 | CC(C)(C)C#Cc1cc(N(CC(=O)N2CCOCC2)C(=O)[C@H]2CC[C@H](C)CC2)c(C(=O)O)s1 [Compound 14] | – | – | – | – | > 100000 nM | < 100 nM | < 100 nM | –
9 | CN1CCC[C@H](N(C(=O)c2ccc(Cl)cc2Cl)c2cc(C#CC(C)(C)C)sc2C(=O)O)C1=O [Compound 140, (S)-5-(3,3-Dimethylbut-1-ynyl)-3-[(2,4-dichlorobenzoyl)-N-(1-methyl-2-oxopiperidin-3-yl)amino]-thiophene-2-carboxylic acid] | – | – | < 100 nM | < 100 nM | > 100000 nM | – | – | –
10 | CCN1CCC[C@H](N(c2cc(C#CC(C)(C)C)sc2C(=O)O)C(=O)[C@H]2CC[C@H](C)CC2)C1=O [Compound 148, (S)-5-(3,3-Dimethylbut-1-ynyl)-3-((trans)-4-methyl-N-(1-ethyl-2-oxopiperidin-3-yl)cyclohexanecarboxamido)thiophene-2-carboxylic acid] | – | – | < 100 nM | < 100 nM | > 100000 nM | – | – | –
11 | CC(C)N1CC[C@H](N(c2cc(C#CC(C)(C)C)sc2C(=O)O)C(=O)[C@H]2CC[C@H](C)CC2)C1=O [Compound 142, 5-(3,3-dimethylbut-1-ynyl)-3-[[(3S)-1-isopropyl-2-oxo-pyrrolidin-3-yl]-(trans-4-methylcyclohexanecarbonyl)amino]thiophene-2-carboxylic acid] | – | – | < 100 nM | < 100 nM | 10000 to 100000 nM | – | – | –
12 | CC[C@@H](C(=O)N1C[C@@H]2C[C@H]1CO2)N(c1cc(C#CC(C)(C)C)sc1C(=O)O)C(=O)[C@H]1CC[C@H](C)CC1 [Compound 94] | – | – | – | – | > 100000 nM | < 100 nM | < 100 nM | –
13 | CCC[C@@H](C(=O)N1CCOCC1)N(C(=O)C1CCC(C)CC1)c1cc(C#CC(C)(C)C)sc1C(=O)O (some centres unmarked) [Compound 64] | – | – | – | – | 10000 to 100000 nM | < 100 nM | < 100 nM | –
14 | CCN(CC)C(=O)CN(c1cc(C#CC(C)(C)C)sc1C(=O)O)C(=O)[C@H]1CC[C@H](C)CC1 [Compound 17] | – | – | – | – | > 100000 nM | < 100 nM | < 100 nM | –
15 | CC(C)N1CCC[C@H](N(c2cc(C#CC(C)(C)C)sc2C(=O)O)C(=O)[C@H]2CC[C@H](C)CC2)C1=O [Compound 149, (S)-5-(3,3-Dimethylbut-1-ynyl)-3-((trans)-4-methyl-N-(1-isopropyl-2-oxopiperidin-3-yl)cyclohexanecarboxamido)thiophene-2-carboxylic acid] | – | – | < 100 nM | < 100 nM | 10000 to 100000 nM | – | – | –
16 | CC1CCC(C(=O)N(c2cc(C#CC(C)(C)C)sc2C(=O)O)C2CCN(C)C2=O)CC1 (centres unmarked) [Compound 83] | – | – | – | – | > 100000 nM | < 100 nM | < 100 nM | –

— US20130190289A1, “COMPOUNDS AND METHODS FOR THE TREATMENT OR PREVENTION OF FLAVIVIRUS INFECTIONS” (priority 2010, published 2013)
